Results reported in PubChem BioAssay (NCI).
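All cell lines were grown in 96-well plates and treated with compound for 48 hours. TGI: total growth inhibition.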

What follows are compounds tested on HOP-62 NSCLC (assay: NCI-60 cell line screen, 48 h).
With `COCO[C@@H]1C[C@H]2C(=O)Nc3ccccc3C(=O)N2C1` the TGI was 90.1 µM.
Work on `CN1C(=O)C2CCC(=O)N2c2cccnc21` (configuration not stated) yielded a TGI greater than 100 µM.
Work on `CC(=O)O[C@@H]1[C@H](C(C)C)[C@@H](OC(C)=O)C/C(C)=C/CC[C@]2(C)O[C@@H]12` yielded a TGI greater than 100 µM.
With `CCOC(=O)CSc1c(C(=O)OCC)c(=O)n(-c2ccccc2)c(=S)n1-c1ccccc1` the TGI was greater than 100 µM.

These compounds were tested on MCF7 breast (assay: NCI-60 cell line screen, 48 h).
`CN(C)C(=O)O/N=C1/C(c2c(O)[nH]c3ccccc23)=Nc2ccccc21` gave a TGI greater than 100 µM.
Compound `O=[N+]([O-])c1cccc(-c2csc(NNC3=NC/C(=C/c4ccc5c(c4)OCO5)S3)n2)c1` has a TGI greater than 100 µM.
Work on `CC(=O)NC(Cc1ccc(O)cc1)C(=O)O` (configuration not stated) yielded a TGI greater than 100 µM.
Work on `COCO[C@@H]1C[C@H]2C(=O)Nc3ccccc3C(=O)N2C1` yielded a TGI greater than 100 µM.
With `CN1C(=O)C2CCC(=O)N2c2cccnc21` (configuration not stated) the TGI was greater than 100 µM.
`Nc1c2c(nc3ccccc13)-c1ccccc1CC2` gave a TGI of 13.8 µM.
`CC(=O)O[C@@H]1[C@H](C(C)C)[C@@H](OC(C)=O)C/C(C)=C/CC[C@]2(C)O[C@@H]12` showed a TGI greater than 100 µM.
In the case of `CCOC(=O)CSc1c(C(=O)OCC)c(=O)n(-c2ccccc2)c(=S)n1-c1ccccc1`, the TGI is reported as greater than 100 µM.

Each compound was assayed on CAKI-1 renal (assay: NCI-60 cell line screen, 48 h).
With `CN(C)C(=O)O/N=C1/C(c2c(O)[nH]c3ccccc23)=Nc2ccccc21` the TGI was 72.6 µM.
`O=[N+]([O-])c1cccc(-c2csc(NNC3=NC/C(=C/c4ccc5c(c4)OCO5)S3)n2)c1` was tested, and the TGI was greater than 100 µM.
`CC(=O)NC(Cc1ccc(O)cc1)C(=O)O` (configuration not stated) showed a TGI greater than 100 µM.
Compound `COCO[C@@H]1C[C@H]2C(=O)Nc3ccccc3C(=O)N2C1` has a TGI greater than 100 µM.
Work on `CN1C(=O)C2CCC(=O)N2c2cccnc21` (configuration not stated) yielded a TGI greater than 100 µM.
`CC(=O)O[C@@H]1[C@H](C(C)C)[C@@H](OC(C)=O)C/C(C)=C/CC[C@]2(C)O[C@@H]12` was tested, and the TGI was greater than 100 µM.
With `CCOC(=O)CSc1c(C(=O)OCC)c(=O)n(-c2ccccc2)c(=S)n1-c1ccccc1` the TGI was greater than 100 µM.

Each compound was assayed on SNB-19 CNS (assay: NCI-60 cell line screen, 48 h).
Compound `CN(C)C(=O)O/N=C1/C(c2c(O)[nH]c3ccccc23)=Nc2ccccc21` has a TGI of 39.1 µM.
Work on `O=[N+]([O-])c1cccc(-c2csc(NNC3=NC/C(=C/c4ccc5c(c4)OCO5)S3)n2)c1` yielded a TGI of 64.8 µM.
`CC(=O)NC(Cc1ccc(O)cc1)C(=O)O` (configuration not stated) was tested, and the TGI was greater than 100 µM.
`COCO[C@@H]1C[C@H]2C(=O)Nc3ccccc3C(=O)N2C1` gave a TGI greater than 100 µM.
With `CN1C(=O)C2CCC(=O)N2c2cccnc21` (configuration not stated) the TGI was greater than 100 µM.
With `CC(=O)O[C@@H]1[C@H](C(C)C)[C@@H](OC(C)=O)C/C(C)=C/CC[C@]2(C)O[C@@H]12` the TGI was greater than 100 µM.
For `CCOC(=O)CSc1c(C(=O)OCC)c(=O)n(-c2ccccc2)c(=S)n1-c1ccccc1`, the TGI was greater than 100 µM.

What follows are compounds tested on SF-539 CNS (assay: NCI-60 cell line screen, 48 h).
Work on `CN(C)C(=O)O/N=C1/C(c2c(O)[nH]c3ccccc23)=Nc2ccccc21` yielded a TGI of 21.4 µM.
`O=[N+]([O-])c1cccc(-c2csc(NNC3=NC/C(=C/c4ccc5c(c4)OCO5)S3)n2)c1` showed a TGI greater than 100 µM.
For `COCO[C@@H]1C[C@H]2C(=O)Nc3ccccc3C(=O)N2C1`, the TGI was greater than 100 µM.
With `CN1C(=O)C2CCC(=O)N2c2cccnc21` (configuration not stated) the TGI was greater than 100 µM.
`Nc1c2c(nc3ccccc13)-c1ccccc1CC2` showed a TGI of 15.1 µM.

Each compound was assayed on U251 CNS (assay: NCI-60 cell line screen, 48 h).
Compound `CN(C)C(=O)O/N=C1/C(c2c(O)[nH]c3ccccc23)=Nc2ccccc21` has a TGI of 33.9 µM.
Compound `O=[N+]([O-])c1cccc(-c2csc(NNC3=NC/C(=C/c4ccc5c(c4)OCO5)S3)n2)c1` has a TGI greater than 100 µM.
Compound `CC(=O)NC(Cc1ccc(O)cc1)C(=O)O` (configuration not stated) has a TGI greater than 100 µM.
In the case of `COCO[C@@H]1C[C@H]2C(=O)Nc3ccccc3C(=O)N2C1`, the TGI is reported as greater than 100 µM.
Work on `CN1C(=O)C2CCC(=O)N2c2cccnc21` (configuration not stated) yielded a TGI greater than 100 µM.
`Nc1c2c(nc3ccccc13)-c1ccccc1CC2` was tested, and the TGI was 15.8 µM.
`CC(=O)O[C@@H]1[C@H](C(C)C)[C@@H](OC(C)=O)C/C(C)=C/CC[C@]2(C)O[C@@H]12` showed a TGI greater than 100 µM.
In the case of `CCOC(=O)CSc1c(C(=O)OCC)c(=O)n(-c2ccccc2)c(=S)n1-c1ccccc1`, the TGI is reported as greater than 100 µM.

What follows are compounds tested on K-562 leukemia (assay: NCI-60 cell line screen, 48 h).
`CN(C)C(=O)O/N=C1/C(c2c(O)[nH]c3ccccc23)=Nc2ccccc21` was tested, and the TGI was greater than 100 µM.
`O=[N+]([O-])c1cccc(-c2csc(NNC3=NC/C(=C/c4ccc5c(c4)OCO5)S3)n2)c1` showed a TGI greater than 100 µM.
`CC(=O)NC(Cc1ccc(O)cc1)C(=O)O` (configuration not stated) gave a TGI greater than 100 µM.
In the case of `CN1C(=O)C2CCC(=O)N2c2cccnc21` (configuration not stated), the TGI is reported as greater than 100 µM.
With `Nc1c2c(nc3ccccc13)-c1ccccc1CC2` the TGI was 17.3 µM.
Compound `CC(=O)O[C@@H]1[C@H](C(C)C)[C@@H](OC(C)=O)C/C(C)=C/CC[C@]2(C)O[C@@H]12` has a TGI greater than 100 µM.
For `CCOC(=O)CSc1c(C(=O)OCC)c(=O)n(-c2ccccc2)c(=S)n1-c1ccccc1`, the TGI was greater than 100 µM.

The compounds below were run on SR leukemia (assay: NCI-60 cell line screen, 48 h).
In the case of `CN(C)C(=O)O/N=C1/C(c2c(O)[nH]c3ccccc23)=Nc2ccccc21`, the TGI is reported as 35.4 µM.
Compound `CN1C(=O)C2CCC(=O)N2c2cccnc21` (configuration not stated) has a TGI greater than 100 µM.
Work on `Nc1c2c(nc3ccccc13)-c1ccccc1CC2` yielded a TGI of 9.31 µM.
With `CCOC(=O)CSc1c(C(=O)OCC)c(=O)n(-c2ccccc2)c(=S)n1-c1ccccc1` the TGI was greater than 100 µM.

Each compound was assayed on COLO 205 colon (assay: NCI-60 cell line screen, 48 h).
For `CN(C)C(=O)O/N=C1/C(c2c(O)[nH]c3ccccc23)=Nc2ccccc21`, the TGI was greater than 100 µM.
For `O=[N+]([O-])c1cccc(-c2csc(NNC3=NC/C(=C/c4ccc5c(c4)OCO5)S3)n2)c1`, the TGI was 98.7 µM.
